Measured values published in patent US4336375A, “Cephalosporanic acid derivatives” (American Cyanamid Company, priority 1980, dated 1982).
Converted amounts (≈) assume the structure as drawn. Like-named read-outs stand apart in the source and are kept apart here.

Columns and labels:
[1] = system: Pseudomonas aeruginosa G236; assay: In vitro MIC, agar dilution, Pseudomonas aeruginosa G236; assay type: cell-based; conditions: read-out: Minimal Inhibitory Concentration
Method: (§1) The in vitro activity of representative compounds of the present invention are given in the following Table I in terms of minimal inhibitory concentration. The test used was the standard agar dilution test using a Steers multiple inocula replicator and incubating at 35° C. for 18 hours in conventional nutrient agar.

[2] = system: Pseudomonas aeruginosa PD05141; assay: In vitro MIC, agar dilution, Pseudomonas aeruginosa PD05141; assay type: cell-based; conditions: Pseudomonas aeruginosa PD05141; agar dilution, 35° C., 18 hours, nutrient agar; read-out: Minimal Inhibitory Concentration
Method: as §1

[3] = system: Pseudomonas aeruginosa 12-4-4; assay: In vitro MIC, agar dilution, Pseudomonas aeruginosa 12-4-4; assay type: cell-based; conditions: read-out: Minimal Inhibitory Concentration
Method: as §1

[4] = system: Pseudomonas aeruginosa UCS 76-13; assay: In vitro MIC, agar dilution, Pseudomonas aeruginosa UCS 76-13; assay type: cell-based; conditions: UCS7613; Pseudomonas aeruginosa UCS 76-13; agar dilution, 35° C., 18 hours, nutrient agar; read-out: Minimal Inhibitory Concentration
Method: as §1

[5] = system: Klebsiella pneumoniae MA75-1; assay: In vitro MIC, agar dilution, Klebsiella pneumoniae MA75-1; assay type: cell-based; conditions: MA751; Klebsiella pneumoniae MA75-1; agar dilution, 35° C., 18 hours, nutrient agar; read-out: Minimal Inhibitory Concentration
Method: as §1

[6] = system: Klebsiella pneumoniae W75-2; assay: In vitro MIC, agar dilution, Klebsiella pneumoniae W75-2; assay type: cell-based; conditions: W752; Klebsiella pneumoniae W75-2; agar dilution, 35° C., 18 hours, nutrient agar; read-out: Minimal Inhibitory Concentration
Method: as §1

[7] = system: Klebsiella pneumoniae W75-4; assay: In vitro MIC, agar dilution, Klebsiella pneumoniae W75-4; assay type: cell-based; conditions: W754; Klebsiella pneumoniae W75-4; agar dilution, 35° C., 18 hours, nutrient agar; read-out: Minimal Inhibitory Concentration
Method: as §1

[8] = system: Klebsiella pneumoniae UR76-1; assay: In vitro MIC, agar dilution, Klebsiella pneumoniae UR76-1; assay type: cell-based; conditions: UR761; Klebsiella pneumoniae UR76-1; agar dilution, 35° C., 18 hours, nutrient agar; read-out: Minimal Inhibitory Concentration
Method: as §1

[9] = system: Klebsiella pneumoniae AD; assay: In vitro MIC, agar dilution, Klebsiella pneumoniae AD; assay type: cell-based; conditions: Klebsiella pneumoniae AD; agar dilution, 35° C., 18 hours, nutrient agar; read-out: Minimal Inhibitory Concentration
Method: as §1

[10] = system: Enterobacter aerogenes UR76-3; assay: In vitro MIC, agar dilution, Enterobacter aerogenes UR76-3; assay type: cell-based; conditions: Klebsiella aerogenes, UR763; Enterobacter aerogenes UR76-3; agar dilution, 35° C., 18 hours, nutrient agar; read-out: Minimal Inhibitory Concentration
Method: as §1

[11] = system: Enterobacter cloacae MA75-1; assay: In vitro MIC, agar dilution, Enterobacter cloacae MA75-1; assay type: cell-based; conditions: MA751; Enterobacter cloacae MA75-1; agar dilution, 35° C., 18 hours, nutrient agar; read-out: Minimal Inhibitory Concentration
Method: as §1

[12] = system: Enterobacter cloacae OSU75-2; assay: In vitro MIC, agar dilution, Enterobacter cloacae OSU75-2; assay type: cell-based; conditions: OSU752; Enterobacter cloacae OSU75-2; agar dilution, 35° C., 18 hours, nutrient agar; read-out: Minimal Inhibitory Concentration
Method: as §1

[13] = system: Serratia K101; assay: In vitro MIC, agar dilution, Serratia K101; assay type: cell-based; conditions: Serratia K101; agar dilution, 35° C., 18 hours, nutrient agar; read-out: Minimal Inhibitory Concentration
Method: as §1

[14] = system: Serratia marcens K77-1; assay: In vitro MIC, agar dilution, Serratia marcens K77-1; assay type: cell-based; conditions: K771; Serratia marcens K77-1; agar dilution, 35° C., 18 hours, nutrient agar; read-out: Minimal Inhibitory Concentration
Method: as §1

[15] = system: Serratia marcens QHC77-2; assay: In vitro MIC, agar dilution, Serratia marcens QHC77-2; assay type: cell-based; conditions: QHC772; Serratia marcens QHC77-2; agar dilution, 35° C., 18 hours, nutrient agar; read-out: Minimal Inhibitory Concentration
Method: as §1

[16] = system: Proteus vulgaris N74-1; assay: In vitro MIC, agar dilution, Proteus vulgaris N74-1; assay type: cell-based; conditions: N741, 35° C., 18 hours, nutrient agar, read-out: Minimal Inhibitory Concentration
Method: as §1

[17] = system: Proteus morganii K72; assay: In vitro MIC, agar dilution, Proteus morganii K72; assay type: cell-based; conditions: Morganella morganii; Proteus morganii K72; agar dilution, 35° C., 18 hours, nutrient agar; read-out: Minimal Inhibitory Concentration
Method: as §1

[18] = system: Proteus rettgeri N76-1; assay: In vitro MIC, agar dilution, Proteus rettgeri N76-1; assay type: cell-based; conditions: Providencia rettgeri, N761; Proteus rettgeri N76-1; agar dilution, 35° C., 18 hours, nutrient agar; read-out: Minimal Inhibitory Concentration
Method: as §1

[19] = system: Escherichia coli ESS22-31; assay: In vitro MIC, agar dilution, Escherichia coli ESS22-31; assay type: cell-based; conditions: ESS2231; Escherichia coli ESS22-31; agar dilution, 35° C., 18 hours, nutrient agar; read-out: Minimal Inhibitory Concentration
Method: as §1

[20] = system: Escherichia coli W75-1; assay: In vitro MIC, agar dilution, Escherichia coli W75-1; assay type: cell-based; conditions: W751, 35° C., 18 hours, nutrient agar, read-out: Minimal Inhibitory Concentration
Method: as §1

[21] = system: Escherichia coli OSU75-1; assay: In vitro MIC, agar dilution, Escherichia coli OSU75-1; assay type: cell-based; conditions: OSU751, 35° C., 18 hours, nutrient agar, read-out: Minimal Inhibitory Concentration
Method: as §1

[22] = system: Escherichia coli 311; assay: In vitro MIC, agar dilution, Escherichia coli 311; assay type: cell-based; conditions: 35° C., 18 hours, nutrient agar, read-out: Minimal Inhibitory Concentration
Method: as §1

[23] = system: Staphylococcus aureus Q74-1; assay: In vitro MIC, agar dilution, Staphylococcus aureus Q74-1; assay type: cell-based; conditions: Q741; Staphylococcus aureus Q74-1; agar dilution, 35° C., 18 hours, nutrient agar; read-out: Minimal Inhibitory Concentration
Method: as §1

[24] = system: Staphylococcus aureus Q74-6; assay: In vitro MIC, agar dilution, Staphylococcus aureus Q74-6; assay type: cell-based; conditions: Q746; Staphylococcus aureus Q74-6; agar dilution, 35° C., 18 hours, nutrient agar; read-out: Minimal Inhibitory Concentration
Method: as §1

[25] = system: Enterococcus SM77-15; assay: In vitro MIC, agar dilution, Enterococcus SM77-15; assay type: cell-based; conditions: SM7715; Enterococcus SM77-15; agar dilution, 35° C., 18 hours, nutrient agar; read-out: Minimal Inhibitory Concentration
Method: as §1

[26] = system: Escherichia coli 311; assay: In vivo systemic lethal infection of mice, Escherichia coli 311; parameters: species or system Charles River CD-1 mice; conditions: CD-1 mice
Description: As shown in Table II these compounds show high in vivo antibacterial activity against Escherichia coli 311 and Klebsiella pneumoniae W-75-2 when administered by a single subcutaneous dose to groups of Charles River CD-1 mice, weighing about 20 g. each. The mice are infected intraperitoneally with a lethal dose of these bacteria.

[27] = single subcutaneous dose 1 mg./kg.
[28] = single subcutaneous dose 2 mg./kg.
[29] = single subcutaneous dose 4 mg./kg.
[30] = single subcutaneous dose 8 mg./kg.

SMILES: CO/N=C(\C(=O)NC1C(=O)N2C(C(=O)O)=C(CSc3nnc(-n4nc(C)cc4C)n3N)CSC12)c1csc(N)n1 (stereo not drawn) [Compound II, 7-[2-(Syn-methoxyimino)-2-(2-aminothiazol-4-yl)acetamido]-3-[4-amino-5-(1-[3,5-dimethyl]pyrazolyl)-1,2,4-triazol-3-ylthiomethyl]-3-cephem-4-carboxylicacid]
- MIC ([1]; Pseudomonas aeruginosa G236, agar dilution, 35° C., 18 hours, nutrient agar): 128 mg/L (≈ 211 µM)
- MIC [2]: > 128 mg/L
- MIC ([3]; Pseudomonas aeruginosa, 1244, 18 h): 64 mg/L (≈ 106 µM)
- MIC [4]: > 128 mg/L
- MIC [5]: ≤ 0.12 mg/L
- MIC [6]: 0.25 mg/L (≈ 0.413 µM)
- MIC [7]: 0.25 mg/L (≈ 0.413 µM)
- MIC [8]: 0.5 mg/L (≈ 0.826 µM)
- MIC [9]: ≤ 0.12 mg/L
- MIC [10]: ≤ 0.12 mg/L
- MIC [11]: 128 mg/L (≈ 211 µM)
- MIC [12]: 2 mg/L (≈ 3.3 µM)
- MIC [13]: 1 mg/L (≈ 1.65 µM)
- MIC [14]: 1 mg/L (≈ 1.65 µM)
- MIC [15]: 2 mg/L (≈ 3.3 µM)
- MIC [16]: 0.5 mg/L (≈ 0.826 µM)
- MIC [17]: 0.5 mg/L (≈ 0.826 µM)
- MIC [18]: 0.5 mg/L (≈ 0.826 µM)
- MIC [19]: ≤ 0.12 mg/L
- MIC [20]: 0.25 mg/L (≈ 0.413 µM)
- MIC [21]: 0.25 mg/L (≈ 0.413 µM)
- MIC [22]: ≤ 0.12 mg/L
- MIC [23]: 2 mg/L (≈ 3.3 µM)
- MIC [24]: 64 mg/L (≈ 106 µM)
- MIC [25]: > 128 mg/L
- Alive/Total Mice Tested, 7 Days After Infection [26, 27]: 0/5
- Alive/Total Mice Tested, 7 Days After Infection [26, 28]: 5/5
- Alive/Total Mice Tested, 7 Days After Infection [26, 29]: 5/5
- Alive/Total Mice Tested, 7 Days After Infection [26, 30]: 5/5

SMILES: CO/N=C(\C(=O)NC1C(=O)N2C(C(=O)O)=C(CSc3nnc(-n4nc(C)cc4-c4ccccc4)n3N)CSC12)c1csc(N)n1 (stereo not drawn) [Compound III, 7-[2-(Syn-methoxyimino)-2-(2-aminothiazol-4-yl)acetamido]-3-[4-amino-5-(1-[3-methyl-5-phenyl]pyrazolyl)-1,2,4-triazol-3-ylthiomethyl]-3-cephem-4-carboxylic acid]
- MIC ([1]; Pseudomonas aeruginosa, G236, 18 h): > 128 mg/L
- MIC [2]: > 128 mg/L
- MIC ([3]; 1244, Pseudomonas aeruginosa 12-4-4, agar dilution, 35° C., 18 hours, nutrient agar): 128 mg/L (≈ 192 µM)
- MIC [4]: > 128 mg/L
- MIC [5]: 0.5 mg/L (≈ 0.749 µM)
- MIC [6]: 1 mg/L (≈ 1.5 µM)
- MIC [7]: 1 mg/L (≈ 1.5 µM)
- MIC [8]: 4 mg/L (≈ 5.99 µM)
- MIC [9]: 0.5 mg/L (≈ 0.749 µM)
- MIC [10]: 0.25 mg/L (≈ 0.374 µM)
- MIC [11]: 128 mg/L (≈ 192 µM)
- MIC [12]: 4 mg/L (≈ 5.99 µM)
- MIC [13]: 4 mg/L (≈ 5.99 µM)
- MIC [14]: 4 mg/L (≈ 5.99 µM)
- MIC [15]: 8 mg/L (≈ 12 µM)
- MIC [16]: 1 mg/L (≈ 1.5 µM)
- MIC [17]: 2 mg/L (≈ 3 µM)
- MIC [18]: 1 mg/L (≈ 1.5 µM)
- MIC [19]: ≤ 0.12 mg/L
- MIC [20]: 1 mg/L (≈ 1.5 µM)
- MIC [21]: 1 mg/L (≈ 1.5 µM)
- MIC [22]: 0.25 mg/L (≈ 0.374 µM)
- MIC [23]: 2 mg/L (≈ 3 µM)
- MIC [24]: 32 mg/L (≈ 47.9 µM)
- MIC [25]: > 128 mg/L
- Alive/Total Mice Tested, 7 Days After Infection [26, 27]: 0/5
- Alive/Total Mice Tested, 7 Days After Infection [26, 28]: 0/5
- Alive/Total Mice Tested, 7 Days After Infection [26, 29]: 5/5
- Alive/Total Mice Tested, 7 Days After Infection [26, 30]: 5/5
